Measured values taken from patent publication US9636418B2 (priority 2013, dated 2017).
“And” between values parts separate entries of the source, which are not always exact repeats. Equal entries are not always repeated. “Also recorded” adds a separate entry of the source. Where two headings read alike, the source gives them in different places.

Columns and labels:
hNav1.7 [1] = target: T1, hNav1.7 (Homo sapiens, UniProt Q15858); assay: cell-based; assay type: cell-based
hNav1.8 = hNav1.8 (Homo sapiens, UniProt Q9Y5Y9); assay: cell-based; assay type: cell-based
hNav1.5 = hNav1.5 (Homo sapiens, UniProt Q14524); assay: cell-based; assay type: cell-based
hNav1.4 = hNav1.4 (Homo sapiens, UniProt P35499); assay type: cell-based
hNav1.3 = hNav1.3 (Homo sapiens, UniProt Q9NY46); assay type: cell-based
Sequence of hNav1.3 (Q9NY46 whole entry): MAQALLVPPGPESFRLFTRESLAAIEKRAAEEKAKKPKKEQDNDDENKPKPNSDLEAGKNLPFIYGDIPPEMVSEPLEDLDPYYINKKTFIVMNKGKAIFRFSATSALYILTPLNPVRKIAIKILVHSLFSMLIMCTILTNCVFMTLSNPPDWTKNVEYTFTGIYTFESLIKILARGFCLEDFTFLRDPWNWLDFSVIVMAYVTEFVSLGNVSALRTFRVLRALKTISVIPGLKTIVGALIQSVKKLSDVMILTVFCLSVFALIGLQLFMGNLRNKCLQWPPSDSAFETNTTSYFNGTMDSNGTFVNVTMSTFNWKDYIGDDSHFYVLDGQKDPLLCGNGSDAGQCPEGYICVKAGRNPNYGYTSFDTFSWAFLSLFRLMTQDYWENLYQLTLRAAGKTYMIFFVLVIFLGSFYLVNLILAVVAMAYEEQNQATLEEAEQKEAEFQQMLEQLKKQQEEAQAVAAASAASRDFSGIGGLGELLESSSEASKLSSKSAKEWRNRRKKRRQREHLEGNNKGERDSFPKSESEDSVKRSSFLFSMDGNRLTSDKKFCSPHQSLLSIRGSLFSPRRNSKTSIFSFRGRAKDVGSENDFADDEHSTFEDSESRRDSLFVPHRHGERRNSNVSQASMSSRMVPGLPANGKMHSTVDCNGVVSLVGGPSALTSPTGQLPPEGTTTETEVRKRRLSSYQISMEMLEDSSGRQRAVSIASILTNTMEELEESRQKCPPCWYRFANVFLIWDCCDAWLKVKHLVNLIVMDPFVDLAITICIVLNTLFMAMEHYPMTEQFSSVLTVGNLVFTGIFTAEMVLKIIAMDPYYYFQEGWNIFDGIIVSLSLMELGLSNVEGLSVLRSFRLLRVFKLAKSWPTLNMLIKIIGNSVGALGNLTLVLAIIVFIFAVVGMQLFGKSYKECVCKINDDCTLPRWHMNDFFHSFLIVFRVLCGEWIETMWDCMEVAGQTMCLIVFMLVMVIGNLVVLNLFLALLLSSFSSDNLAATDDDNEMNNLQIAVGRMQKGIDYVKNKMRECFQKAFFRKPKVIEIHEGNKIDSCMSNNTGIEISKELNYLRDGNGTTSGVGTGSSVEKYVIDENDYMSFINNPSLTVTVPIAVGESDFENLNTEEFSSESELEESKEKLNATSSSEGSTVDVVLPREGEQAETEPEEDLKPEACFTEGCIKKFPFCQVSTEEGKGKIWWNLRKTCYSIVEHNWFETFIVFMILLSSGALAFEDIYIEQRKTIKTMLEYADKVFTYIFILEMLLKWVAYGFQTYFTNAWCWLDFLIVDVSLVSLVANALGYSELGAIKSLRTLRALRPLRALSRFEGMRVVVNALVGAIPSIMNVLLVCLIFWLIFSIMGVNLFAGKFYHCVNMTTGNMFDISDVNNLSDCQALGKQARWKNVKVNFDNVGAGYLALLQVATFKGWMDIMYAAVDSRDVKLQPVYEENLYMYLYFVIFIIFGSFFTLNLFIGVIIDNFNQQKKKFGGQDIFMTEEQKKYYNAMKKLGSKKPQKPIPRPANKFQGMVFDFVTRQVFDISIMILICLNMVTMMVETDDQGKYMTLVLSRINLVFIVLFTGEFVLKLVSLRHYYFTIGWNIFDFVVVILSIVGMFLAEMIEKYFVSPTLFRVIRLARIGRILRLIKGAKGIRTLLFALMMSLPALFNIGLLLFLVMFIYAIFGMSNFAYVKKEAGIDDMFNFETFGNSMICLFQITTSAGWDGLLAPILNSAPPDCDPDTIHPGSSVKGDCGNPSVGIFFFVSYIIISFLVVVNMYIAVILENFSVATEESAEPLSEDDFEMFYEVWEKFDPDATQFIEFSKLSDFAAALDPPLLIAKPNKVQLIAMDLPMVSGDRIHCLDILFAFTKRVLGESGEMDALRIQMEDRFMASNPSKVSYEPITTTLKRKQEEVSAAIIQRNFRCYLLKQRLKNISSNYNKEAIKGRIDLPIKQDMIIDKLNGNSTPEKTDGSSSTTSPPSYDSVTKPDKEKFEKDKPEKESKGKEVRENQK

[2] = system: TTX-sensitive Nav channels in mouse DRG neuron; assay type: cell-based
[3] = system: TTX-resistant Nav channels in mouse DRG neuron; assay type: cell-based
hNav1.7 [4] = target: T1, hNav1.7; assay: cell-based; assay type: cell-based; conditions: values quoted in text (average); read-out: hNav1.7 IC50 in the PX format
male CD-1 mice [5] = conditions: mouse, in vivo
male CD-1 mice [6] = conditions: mouse, in vivo; remark: listed apart in the source
male Sprague-Dawley rats [7] = assay type: in vivo, rat
[8] = human plasma, 37° C., incubation 0 hr
[9] = cyno plasma, 37° C., incubation 0 hr
[10] = 1 mg/kg s.c.
male CD-1 mice [11] = conditions: for terminal exposure (plasma): 2 h post peptide injection
male Sprague-Dawley rats [12] = conditions: 5.0 mg/kg s.c., 2 h post peptide injection
in vivo = conditions: CD-1, mouse, sc, 1 mg/kg
in vitro [13] = conditions: human, plasma
in vitro [14] = conditions: monkey, plasma
[15] = system: central neuronal sodium channels in rat hippocampus neurons; conditions: cited from earlier work
[16] = in vivo; cited from earlier work
mice = conditions: mouse, in vivo; cited from earlier work
[17] = 0.1, 0.3 or 1.0 mg/kg s.c., 1-hour pre-treatment

T1 sequence (Q15858 whole entry): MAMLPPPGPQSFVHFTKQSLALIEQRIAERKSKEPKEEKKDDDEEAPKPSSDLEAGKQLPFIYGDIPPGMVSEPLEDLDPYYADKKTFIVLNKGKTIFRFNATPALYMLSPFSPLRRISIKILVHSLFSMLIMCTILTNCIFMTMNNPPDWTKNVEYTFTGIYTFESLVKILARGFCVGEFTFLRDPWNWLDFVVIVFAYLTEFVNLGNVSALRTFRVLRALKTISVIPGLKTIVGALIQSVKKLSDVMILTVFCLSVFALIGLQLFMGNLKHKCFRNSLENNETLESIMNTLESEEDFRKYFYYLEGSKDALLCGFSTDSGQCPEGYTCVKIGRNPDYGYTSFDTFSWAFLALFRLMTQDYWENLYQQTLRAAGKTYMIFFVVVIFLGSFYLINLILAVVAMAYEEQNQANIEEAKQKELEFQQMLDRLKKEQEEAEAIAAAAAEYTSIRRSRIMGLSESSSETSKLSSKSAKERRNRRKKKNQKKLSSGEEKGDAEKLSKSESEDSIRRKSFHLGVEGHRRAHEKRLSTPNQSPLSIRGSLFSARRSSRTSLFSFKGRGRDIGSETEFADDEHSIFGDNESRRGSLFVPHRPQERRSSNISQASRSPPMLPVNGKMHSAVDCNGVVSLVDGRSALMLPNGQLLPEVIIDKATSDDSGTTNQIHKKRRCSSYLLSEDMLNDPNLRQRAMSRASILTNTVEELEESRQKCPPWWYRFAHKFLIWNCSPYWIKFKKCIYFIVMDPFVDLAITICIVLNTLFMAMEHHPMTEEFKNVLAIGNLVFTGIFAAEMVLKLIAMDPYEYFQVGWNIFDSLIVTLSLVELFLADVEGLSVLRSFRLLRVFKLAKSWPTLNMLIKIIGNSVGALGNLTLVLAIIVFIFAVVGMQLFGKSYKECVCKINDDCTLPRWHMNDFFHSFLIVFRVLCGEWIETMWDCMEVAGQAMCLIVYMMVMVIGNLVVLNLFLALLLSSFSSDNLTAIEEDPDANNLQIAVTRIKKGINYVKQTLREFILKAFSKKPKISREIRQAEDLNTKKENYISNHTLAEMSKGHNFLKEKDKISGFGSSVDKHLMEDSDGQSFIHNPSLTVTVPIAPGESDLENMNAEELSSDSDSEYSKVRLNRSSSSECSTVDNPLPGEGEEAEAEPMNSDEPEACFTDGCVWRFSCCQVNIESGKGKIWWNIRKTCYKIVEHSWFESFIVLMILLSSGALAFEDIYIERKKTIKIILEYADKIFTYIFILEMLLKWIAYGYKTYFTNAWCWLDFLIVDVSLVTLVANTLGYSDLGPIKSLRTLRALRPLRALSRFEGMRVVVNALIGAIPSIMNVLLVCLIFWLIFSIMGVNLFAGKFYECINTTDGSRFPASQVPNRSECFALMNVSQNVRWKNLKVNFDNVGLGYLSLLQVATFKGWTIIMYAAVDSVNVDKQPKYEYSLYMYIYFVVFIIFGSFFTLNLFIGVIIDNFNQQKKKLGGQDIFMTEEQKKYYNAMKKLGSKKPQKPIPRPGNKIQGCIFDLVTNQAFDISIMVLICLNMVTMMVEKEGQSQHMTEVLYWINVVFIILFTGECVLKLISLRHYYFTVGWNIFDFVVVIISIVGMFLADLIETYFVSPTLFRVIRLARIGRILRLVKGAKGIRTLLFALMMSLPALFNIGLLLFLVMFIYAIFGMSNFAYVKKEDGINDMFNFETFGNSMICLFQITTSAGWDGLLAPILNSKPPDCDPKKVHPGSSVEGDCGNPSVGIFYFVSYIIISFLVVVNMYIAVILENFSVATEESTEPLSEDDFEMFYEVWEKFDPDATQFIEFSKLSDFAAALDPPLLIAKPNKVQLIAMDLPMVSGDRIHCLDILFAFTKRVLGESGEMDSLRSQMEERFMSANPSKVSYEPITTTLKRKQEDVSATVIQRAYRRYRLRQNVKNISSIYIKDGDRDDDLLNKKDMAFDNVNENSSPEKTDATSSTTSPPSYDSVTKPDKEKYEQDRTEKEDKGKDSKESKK

CC[C@H](C)[C@H](NC(=O)[C@@H](NC(=O)[C@H](CCCCN)NC(=O)[C@H](CCCNC(=N)N)NC(=O)[C@@H]1CSSC[C@@H]2NC(=O)[C@H](C)NC(=O)[C@H](CCCNC(=N)N)NC(=O)[C@H](CCCCN)NC(=O)[C@H](CO)NC(=O)[C@H](CC(=O)O)NC(=O)[C@@H]3CSSC[C@H](NC(=O)[C@H](CCCNC(=N)N)NC(=O)[C@H](CC(C)C)NC(=O)CNC(=O)[C@H](CCC(=O)O)NC(=O)[C@H](CSSC[C@H](NC(=O)[C@@H](N)Cc4ccc(O)cc4)C(=O)N[C@@H](CCC(N)=O)C(=O)N[C@@H](CCCCN)C(=O)N[C@@H](Cc4c[nH]c5ccccc45)C(=O)N[C@@H](CCSC)C(=O)N[C@@H](Cc4c[nH]c5ccccc45)C(=O)N[C@@H]([C@@H](C)O)C(=O)N3)NC2=O)C(=O)N[C@@H](CCCCN)C(=O)N[C@@H](CC(C)C)C(=O)N[C@@H](Cc2c[nH]c3ccccc23)C(=O)N1)[C@@H](C)CC)C(N)=O [SEQ ID NO: 2, JzTx-V(1-29), reference compound]
block of hNav1.7 current (hNav1.7 [1]): blocked all Nav1.7 current
inhibition of hNav1.7 current (hNav1.7 [1]): complete inhibition
inhibition of hNav1.8 current (hNav1.8): only partial inhibition
block of hNav1.5 current (hNav1.5): blocked most Nav1.5 current; also recorded: nearly complete inhibition
block of hNav1.4 current (hNav1.4): completely blocked Nav1.4 current; also recorded: complete inhibition
block of hNav1.3 current (hNav1.3): completely blocked Nav1.3 current; also recorded: complete inhibition
block of TTX-sensitive Nav current [2]: completely blocked TTX-sensitive Nav current; also recorded: blocked nearly all TTX-sensitive Nav current; also recorded: almost complete inhibition
effect on TTX-resistant Nav current [3]: nominal effect on peak TTX-resistant current but prolonged the level of TTX-resistant current at 40 msec; also recorded: only partial inhibition

CC[C@H](C)[C@H](NC(=O)[C@H](CCCCN)NC(=O)[C@H](CCCNC(=N)N)NC(=O)[C@@H]1CSSC[C@@H]2NC(=O)[C@H](C)NC(=O)[C@H](CCCNC(=N)N)NC(=O)[C@H](CCCCN)NC(=O)[C@H](CO)NC(=O)[C@H](CC(=O)O)NC(=O)[C@@H]3CSSC[C@H](NC(=O)[C@H](CCC(=O)O)NC(=O)[C@H](CC(C)C)NC(=O)CNC(=O)[C@H](CCC(=O)O)NC(=O)[C@H](CSSC[C@H](NC(=O)[C@@H](N)Cc4ccc(O)cc4)C(=O)N[C@@H](CCC(N)=O)C(=O)N[C@@H](CCCCN)C(=O)N[C@@H](Cc4c[nH]c5ccccc45)C(=O)N[C@@H](CCSC)C(=O)N[C@@H](Cc4c[nH]c5ccccc45)C(=O)N[C@@H]([C@@H](C)O)C(=O)N3)NC2=O)C(=O)N[C@@H](CCCCN)C(=O)N[C@@H](CC(C)C)C(=O)N[C@@H](Cc2c[nH]c3ccccc23)C(=O)N1)C(=O)N[C@@H](Cc1c[nH]c2ccccc12)C(N)=O [SEQ ID NO: 112, [Glu20;Trp29]JzTx-V(1-29)]
IC50 (hNav1.7 [4]): 1.5 nM
block of TTX-sensitive Nav current [2]: only blocked around half of TTX-sensitive Nav current; also recorded: only partially blocked TTX-sensitive Nav current; also recorded: only partial inhibition
loss in potency relative to the human clone of Nav1.7 ([2]; TTX-sensitive current, mouse DRG neurons): ~1000 fold
time spent lifting and/or licking the affected paw, first phase (0-5 min) (male CD-1 mice [5]): no effect and Neither the peptide nor the morphine positive control significantly reduced and 1 mg/kg dose of peptide may have slightly increased the pain response
time spent lifting and/or licking the affected paw, second phase (5-40 min) (male CD-1 mice [5]): no effect; also recorded: but not the peptide significantly reduced
thermal latency / thermal hyperalgesia (male CD-1 mice [6]): no effect
formalin response, first or acute phase (0-5 min) (male Sprague-Dawley rats [7]; peptide 5.0 mg/kg s.c. 1-h pre-treatment, vs vehicle (PBS)): no effect
formalin response, second phase (5-40 min) (male Sprague-Dawley rats [7]; rat, in vivo): did not decrease and may have actually increased; also recorded: may have actually increased the pain response
% Peptide Remaining [8]: 100%
% Peptide Remaining [9]: 100%
plasma concentration over the in vitro hNav1.7 IC50 by PX ([10]; CD-1 mice): 26 fold
time with measurable plasma concentrations ([10]; mice): 4 h
tolerability ([10]; mice): tolerated
terminal exposure (plasma) (male CD-1 mice [11]; 0.1 mg/kg s.c.): 0.0248 ± 0.00668 µM
terminal exposure (plasma) (male CD-1 mice [11]; 0.3 mg/kg s.c.): 0.121 ± 0.0296 µM
terminal exposure (plasma) (male CD-1 mice [11]; 1.0 mg/kg s.c.): 0.419 ± 0.226 µM
terminal exposure (plasma) (male CD-1 mice [11]; 5.0 mg/kg s.c.): 4.73 ± 0.584 µM
total fine movement (male CD-1 mice [11]; [17]): no effect
total time rearing (male CD-1 mice [11]; [17]): no effect
terminal exposure (plasma) (male Sprague-Dawley rats [12]): 0.994 ± 0.184 µM
half-life (in vivo): ~2.08 h
remaining at 2 h (in vitro [13]): 95%
remaining at 4 h (in vitro [13]): 84%
remaining at 6 h (in vitro [13]): 75%
remaining at 8 h (in vitro [13]): 71%
remaining at 24 h (in vitro [13]): 48%
remaining at 2 h (in vitro [14]): 93%
remaining at 4 h (in vitro [14]): 91%
remaining at 6 h (in vitro [14]): 90%
remaining at 8 h (in vitro [14]): 91%
remaining at 24 h (in vitro [14]): 89%

Huwentoxin-IV [SEQ ID NO: 528]
less potent against central neuronal sodium channels [15]: 12 fold

YCQKWMWTCDSERKCCEGMVCRLWCKKKLW [SEQ ID NO: 531, ProTx-II]
efficacy in mechanical hyperalgesia study [16]: not efficacious

μ-Conotoxin KIIIA [SEQ ID NO: 530]
motor impairment (mice): some motor impairment but not paralytic activity
